According to patent publication US20100248223A1, “ASSESSING OUTCOMES FOR BREAST CANCER PATIENTS” (MAYO FOUNDATION FOR MEDICAL EDUCATION AND RESEARCH, priority 2006, published 2010):
Where two headings read alike, the source gives them in different places.

Assays:
[1] = target: CYP2D6 enzyme system (Homo sapiens, UniProt P10635); details: classification from cited literature; cited from earlier work
[2] = tested on: resected ER positive breast cancer; details: for 9 year RFS rate / 5-year DFS: node negative
Source text: Patients. […] Postmenopausal women with node-negative disease were required to have stage T1c or T2N0M0 cancer and could be any age, whereas women with node-positive disease were required to be at least 65 years of age with a tumor stage T1 (any N) or T2N1M0. […] Patients were surgically treated with either a modified radical mastectomy or breast conservative therapy including lumpectomy, axillary nodal dissection, and radiation therapy. The axillary dissection must have involved at least levels I and II and the examination of at least 6 axillary nodes. […] Postlumpectomy radiation therapy consisted of a total cumulative breast dose of 5040 cGy in 28 fractions, and those with axillary nodal involvement also received radiation to the axilla and supraclavicular regions. Patients were classified as ER positive if resected breast tissue contained ≧10 fmol of ER polypeptide/mg cytosol protein or was positive for ER polypeptide by an immunohistochemical assay. All patients were randomized within 6 weeks of definitive surgery.
Patients were stratified based on axillary lymph node status (0, 1-3, 4-9 vs. 10 or more), age (<65 years vs. >65), primary tumor size (<3 cm vs. >3 cm), ER status (10-49 fmol vs. 50 fmol or greater vs. positive by immunohistochemical assay), and extent of surgery (mastectomy vs. breast conservation therapy).
Study Design and End Points. One objective of this study was to examine the relationship between the HOXB13:IL-17BR expression ratio and clinical outcomes of relapse-free survival, disease-free survival, and overall survival. Relapse-free survival (RFS) was defined as the time from randomization to documentation of the first of the following events: any recurrence (local, regional or distant) of breast cancer, a contralateral breast cancer or death. When estimating the distribution of RFS, patients who developed a non-breast second primary cancer (other than squamous or basal cell carcinoma of the skin, carcinoma in situ of the cervix, or lobular carcinoma in situ of the breast) prior to the diagnosis of a breast event were censored on the day their second primary was diagnosed. Patients who were alive without a breast recurrence, contralateral breast cancer or a second non-breast primary cancer were censored at the date of their last disease evaluation. Disease-free survival (DFS) was defined as the time from randomization to documentation of the first of the following events: any recurrence (local, regional or distant) of breast cancer, a contralateral breast cancer, a second primary cancer, or death due to any cause. Patients who were alive without any of these events were censored at the date of their last disease evaluation. Overall survival (OS) was estimated as the time from registration to death due to any cause.
Relapse-free (RF) time was defined as the time from randomization to documentation of a breast event where a breast event is any recurrence (local, regional, or distant) of breast cancer or the documentation of contralateral breast cancer (including ductal carcinoma in situ). When estimating the distribution of RF time, patients who developed a non-breast second primary cancer (other than squamous or basal cell carcinoma of the skin, carcinoma in situ of the cervix, or lobular carcinoma in situ of the breast) prior to the diagnosis of a breast event were censored on the day their second primary was diagnosed. Patients (alive or dead) without a breast recurrence, contralateral breast cancer or a second non-breast primary cancer were censored at the date of their last disease evaluation.
Disease-free survival (DFS) was defined as the time from randomization to documentation of the first of the following events: any recurrence (local, regional or distant) of breast cancer, the documentation of contralateral breast cancer, or death due to any cause.

[3] = patients with gene expression data (n=206), oral tamoxifen 20 mg daily for 5 years

Chain of CYP2D6 enzyme system (P10635 whole entry): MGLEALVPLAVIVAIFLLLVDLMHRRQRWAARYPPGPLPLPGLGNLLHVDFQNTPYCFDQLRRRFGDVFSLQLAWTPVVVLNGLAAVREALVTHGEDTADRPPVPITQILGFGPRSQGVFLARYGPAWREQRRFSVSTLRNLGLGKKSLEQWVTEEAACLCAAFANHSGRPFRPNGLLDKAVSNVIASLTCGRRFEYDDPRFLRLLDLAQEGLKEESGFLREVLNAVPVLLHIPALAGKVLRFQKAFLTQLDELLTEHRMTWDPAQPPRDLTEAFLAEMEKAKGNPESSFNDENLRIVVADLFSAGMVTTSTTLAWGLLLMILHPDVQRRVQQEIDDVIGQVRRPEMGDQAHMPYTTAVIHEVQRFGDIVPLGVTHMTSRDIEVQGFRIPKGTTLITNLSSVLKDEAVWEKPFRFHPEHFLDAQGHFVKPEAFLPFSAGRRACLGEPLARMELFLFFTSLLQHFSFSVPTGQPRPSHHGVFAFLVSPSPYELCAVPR

Fc1ccc([C@@H]2CCNC[C@H]2COc2ccc3c(c2)OCO3)cc1 [paroxetine]
strength of inhibition of the CYP2D6 enzyme system [1]: potent

CN/C(=N/CCSCc1nc[nH]c1C)NC#N [cimetidine]
strength of inhibition of the CYP2D6 enzyme system [1]: moderate

O=C(CCCN1CCC(O)(c2ccc(Cl)cc2)CC1)c1ccc(F)cc1 [haloperidol]
strength of inhibition of the CYP2D6 enzyme system [1]: moderate

CN(C)CCC=C1c2ccccc2COc2ccccc21 [doxepin]
strength of inhibition of the CYP2D6 enzyme system [1]: moderate

CC/C(=C(\c1ccccc1)c1ccc(OCCN(C)C)cc1)c1ccccc1 [tamoxifen]
9 year RFS rate ([2]; Goetz index high risk): 46%
9 year RFS rate ([2]; Goetz index intermediate risk): 65%
9 year RFS rate ([2]; Goetz index low risk): 87%
5-year DFS ([2]; risk profile 1: 2-gene ratio <−1.339, CYP2D6 extensive): 94%
5-year DFS ([2]; risk profile 3: 2-gene ratio >−1.339, CYP2D6 extensive): 83%
5-year DFS ([2]; risk profile 4: 2-gene ratio >−1.339, CYP2D6 decreased): 57%
Kaplan-Meier estimate for the 5 year DFS [2, 3]: 74.3%
Kaplan-Meier estimate for the 5 year OS [2, 3]: 78.2%
Kaplan-Meier estimate for the 5 year RFS [2, 3]: 75.6%
patients reporting mild (grade 1) hot flashes (223 patients): 40%
patients reporting moderate (grade 2) hot flashes (223 patients): 15%
patients reporting severe (grade 3) hot flashes (223 patients): 5%
% of patients who developed moderate or severe hot flashes (CYP2D6 (*4) *4/Wt genotype): 9/40 (23%)
% of patients who developed moderate or severe hot flashes (CYP2D6 (*4) Wt/Wt genotype): 27/137 (20%)
% of patients who developed moderate or severe hot flashes (CYP2D6 *4/WT or WT/WT genotypes (n=177)): 20%
% of patients who developed moderate or severe hot flashes (CYP3A5 (*3) A/A genotype): 1/6 (17%)
% of patients who developed moderate or severe hot flashes (CYP3A5 (*3) G/A genotype): 6/24 (25%)
% of patients who developed moderate or severe hot flashes (CYP3A5 (*3) G/G genotype): 37/175 (21%)

CN[C@H]1CC[C@@H](c2ccc(Cl)c(Cl)c2)c2ccccc21 [sertraline]
strength of inhibition of the CYP2D6 enzyme system [1]: moderate
